tested on: recombinant rabies virus 1088 strain expressing Gaussia Luciferase (GLuc) (1088/GLuc); type: cell-based; settings: read-out: Anti-rabies activity

Compared with `CC(C)CN1C[C@H]2C[C@]3(C(=O)NCc4ccc(O)cc4)NC[C@H]2[C@H]1[C@H]3Cc1cccc2ccccc12` (relative stereo) [IF-500], `CC(C)C[C@@H]1[C@@H]2[C@@H]3CN[C@@]1(C(=O)NCc1cccc4ccccc14)C[C@@H]3CN2Cc1ccc(O)cc1` (relative stereo) [IF-578] is lower in IC50: 10 to 30 µM for the first, < 5 µM for the second.

`CC(C)CC[C@@H]1[C@@H]2[C@@H]3CN[C@@]1(C(=O)NC(C)C)C[C@@H]3CN2Cc1ccc(O)cc1` (relative stereo) [IF-503] and `CC(C)CCNC(=O)[C@@]12C[C@@H]3CN(Cc4ccc(F)cc4)[C@@H]([C@@H]3CN1)[C@H]2CC(C)C` (relative stereo) [IF-585] cannot be ordered by IC50: < 5 µM for the first, < 5 µM for the second.

`CC(C)NC(=O)[C@@]12C[C@@H]3CN(Cc4ccc(O)cc4)[C@@H]([C@@H]3CN1)[C@H]2Cc1cccc2ccccc12` (relative stereo) [IF-504] and `CC(C)NC(=O)[C@@]12C[C@@H]3CN(Cc4cccc5ccccc45)[C@@H]([C@@H]3CN1)[C@H]2Cc1cccc2ccccc12` (relative stereo) [IF-596] fall in the same range of IC50: 10 to 30 µM for the first, 10 to 30 µM for the second.

First: O=C(NCc1ccccc1)[C@@]12C[C@@H]3CN(Cc4cccc5ccccc45)[C@@H]([C@@H]3CN1)[C@H]2Cc1ccc(O)cc1 (relative stereo) [IF-505]
Second: O=C(NCCc1ccccc1)[C@@]12C[C@@H]3CN(Cc4ccc(O)cc4)[C@@H]([C@@H]3CN1)[C@H]2Cc1cccc2ccccc12 (relative stereo) [IF-580]
The IC50 of the first is lower: < 5 µM for the first, 10 to 30 µM for the second.

First: O=C(NCc1ccc(F)cc1)[C@@]12C[C@@H]3CN(CCO)[C@@H]([C@@H]3CN1)[C@H]2Cc1ccccc1 (relative stereo) [IF-508]
Second: O=C(NCc1ccc(F)cc1)[C@@]12C[C@@H]3CN(CCO)[C@@H]([C@@H]3CN1)[C@H]2CCc1ccccc1 (relative stereo) [IF-516]
The IC50 of the first is higher: 10 to 30 µM for the first, < 5 µM for the second.

`CCCCCCNC(=O)[C@@]12C[C@@H]3CN(CC4CCCCC4)[C@@H]([C@@H]3CN1)[C@H]2Cc1ccc(O)cc1` (relative stereo) [IF-514] and `CCCCCCNC(=O)[C@@]12C[C@@H]3CN(CCC(C)C)[C@@H]([C@@H]3CN1)[C@H]2Cc1ccc(O)cc1` (relative stereo) [IF-583] cannot be ordered by IC50: < 5 µM for the first, < 5 µM for the second.

`CC(C)CN1C[C@H]2C[C@]3(C(=O)NCc4ccc(F)cc4)NC[C@H]2[C@H]1[C@H]3CCc1ccccc1` (relative stereo) [IF-525] and `CC(C)CN1C[C@H]2C[C@]3(C(=O)NCc4ccc(O)cc4)NC[C@H]2[C@H]1[C@H]3CCc1ccccc1` (relative stereo) [IF-576] fall in the same range of IC50: 10 to 30 µM for the first, 10 to 30 µM for the second.

Compared with `NC(=O)CCNC(=O)[C@@]12C[C@@H]3CN(CC4CCCCC4)[C@@H]([C@@H]3CN1)[C@H]2Cc1cccc2ccccc12` (relative stereo) [IF-536], `O=C(NCCO)[C@@]12C[C@@H]3CN(CC4CCCCC4)[C@@H]([C@@H]3CN1)[C@H]2Cc1cccc2ccccc12` (relative stereo) [IF-619] is higher in IC50: < 5 µM for the first, 10 to 30 µM for the second.

`NC(=O)CCNC(=O)[C@@]12C[C@@H]3CN(Cc4ccc(F)cc4)[C@@H]([C@@H]3CN1)[C@H]2Cc1cccc2ccccc12` (relative stereo) [IF-539] and `O=C(NCCO)[C@@]12C[C@@H]3CN(Cc4ccc(F)cc4)[C@@H]([C@@H]3CN1)[C@H]2Cc1cccc2ccccc12` (relative stereo) [IF-620] cannot be ordered by IC50: < 5 µM for the first, < 5 µM for the second.

First: CC(C)C[C@@H]1[C@@H]2[C@@H]3CN[C@@]1(C(=O)NCc1cccc4ccccc14)C[C@@H]3CN2CCO (relative stereo) [IF-542]
Second: CC(C)C[C@@H]1[C@@H]2[C@@H]3CN[C@@]1(C(=O)NCCO)C[C@@H]3CN2Cc1cccc2ccccc12 (relative stereo) [IF-604]
The IC50 of the first is lower: < 5 µM for the first, 10 to 30 µM for the second.

`O=C(NCc1cccc2ccccc12)[C@@]12C[C@@H]3CN(CCO)[C@@H]([C@@H]3CN1)[C@H]2Cc1ccc(O)cc1` (relative stereo) [IF-543] and `O=C(NCCO)[C@@]12C[C@@H]3CN(Cc4cccc5ccccc45)[C@@H]([C@@H]3CN1)[C@H]2Cc1ccccc1` (relative stereo) [IF-603] fall in the same range of IC50: 10 to 30 µM for the first, 10 to 30 µM for the second.

`CC(C)CCN1C[C@H]2C[C@]3(C(=O)NCCc4ccccc4)NC[C@H]2[C@H]1[C@H]3Cc1ccc(O)cc1` (relative stereo) [IF-545] and `CC(C)CN1C[C@H]2C[C@]3(C(=O)NCCc4ccccc4)NC[C@H]2[C@H]1[C@H]3Cc1ccc(O)cc1` (relative stereo) [IF-567] fall in the same range of IC50: 10 to 30 µM for the first, 10 to 30 µM for the second.

`CCCCCCNC(=O)[C@@]12C[C@@H]3CN(CCC(C)C)[C@@H]([C@@H]3CN1)[C@H]2CC(C)C` (relative stereo) [IF-546] and `CCCCCCNC(=O)[C@@]12C[C@@H]3CN(CC(C)C)[C@@H]([C@@H]3CN1)[C@H]2CC(C)C` (relative stereo) [IF-569] fall in the same range of IC50: 10 to 30 µM for the first, 10 to 30 µM for the second.

`CC(C)CCN1C[C@H]2C[C@]3(C(=O)NCc4ccc(F)cc4)NC[C@H]2[C@H]1[C@H]3Cc1ccccc1` (relative stereo) [IF-547] and `CC(C)CCNC(=O)[C@@]12C[C@@H]3CN(Cc4ccc(F)cc4)[C@@H]([C@@H]3CN1)[C@H]2Cc1ccccc1` (relative stereo) [IF-584] cannot be ordered by IC50: < 5 µM for the first, < 5 µM for the second.

Compared with `CC(C)CCN1C[C@H]2C[C@]3(C(=O)NCc4ccc(F)cc4)NC[C@H]2[C@H]1[C@H]3CC(C)C` (relative stereo) [IF-548], `CC(C)CNC(=O)[C@@]12C[C@@H]3CN(Cc4ccc(F)cc4)[C@@H]([C@@H]3CN1)[C@H]2CC(C)C` (relative stereo) [IF-654] is lower in IC50: 10 to 30 µM for the first, < 5 µM for the second.

First: CCCCCCNC(=O)[C@@]12C[C@@H]3CN(Cc4ccccc4)[C@@H]([C@@H]3CN1)[C@H]2CC(C)C (relative stereo) [IF-560]
Second: CCCCCCNC(=O)[C@@]12C[C@@H]3CN(CCC(C)C)[C@@H]([C@@H]3CN1)[C@H]2Cc1ccccc1 (relative stereo) [IF-599]
The IC50 of the first is lower: < 5 µM for the first, 10 to 30 µM for the second. The first is the more potent here.

`O=C(NCc1ccc(F)cc1)[C@@]12C[C@@H]3CN(Cc4ccccc4)[C@@H]([C@@H]3CN1)[C@H]2Cc1ccccc1` (relative stereo) [IF-561] and `O=C(NCc1ccccc1)[C@@]12C[C@@H]3CN(Cc4ccc(F)cc4)[C@@H]([C@@H]3CN1)[C@H]2Cc1ccccc1` (relative stereo) [IF-649] cannot be ordered by IC50: < 5 µM for the first, < 5 µM for the second.

Compared with `O=C(NCc1ccc(O)cc1)[C@@]12C[C@@H]3CN(Cc4ccccc4)[C@@H]([C@@H]3CN1)[C@H]2CCc1ccccc1` (relative stereo) [IF-565], `O=C(NCc1ccccc1)[C@@]12C[C@@H]3CN(CCc4ccccc4)[C@@H]([C@@H]3CN1)[C@H]2Cc1ccc(O)cc1` (relative stereo) [IF-640] is higher in IC50: < 5 µM for the first, 10 to 30 µM for the second. The first is the more potent here.

`O=C(NCCc1ccccc1)[C@@]12C[C@@H]3CN(Cc4ccc(F)cc4)[C@@H]([C@@H]3CN1)[C@H]2Cc1ccccc1` (relative stereo) [IF-586] and `CC(C)CNC(=O)[C@@]12C[C@@H]3CN(Cc4ccc(F)cc4)[C@@H]([C@@H]3CN1)[C@H]2Cc1ccccc1` (relative stereo) [IF-653] fall in the same range of IC50: 10 to 30 µM for the first, 10 to 30 µM for the second.

First: CCCCCCNC(=O)[C@@]12C[C@@H]3CN(CCc4ccccc4)[C@@H]([C@@H]3CN1)[C@H]2Cc1ccccc1 (relative stereo) [IF-602]
Second: CC(C)CNC(=O)[C@@]12C[C@@H]3CN(CCc4ccccc4)[C@@H]([C@@H]3CN1)[C@H]2Cc1ccccc1 (relative stereo) [IF-641]
The IC50 of the first is higher: 10 to 30 µM for the first, < 5 µM for the second. The second is the more potent here.

Compared with `CC(C)C[C@@H]1[C@@H]2[C@@H]3CN[C@@]1(C(=O)NCCO)C[C@@H]3CN2CC1CCCCC1` (relative stereo) [IF-606], `CC(C)C[C@@H]1[C@@H]2[C@@H]3CN[C@@]1(C(=O)NCc1ccccc1)C[C@@H]3CN2CC1CCCCC1` (relative stereo) [IF-644] is lower in IC50: 10 to 30 µM for the first, < 5 µM for the second.

`O=C(NCCc1ccccc1)[C@@]12C[C@@H]3CN(CCO)[C@@H]([C@@H]3CN1)[C@H]2Cc1cccc2ccccc12` (relative stereo) [IF-610] and `O=C(NCCO)[C@@]12C[C@@H]3CN(CCc4ccccc4)[C@@H]([C@@H]3CN1)[C@H]2Cc1cccc2ccccc12` (relative stereo) [IF-612] fall in the same range of IC50: 10 to 30 µM for the first, 10 to 30 µM for the second.

`CC(C)CCN1C[C@H]2C[C@]3(C(=O)NCCO)NC[C@H]2[C@H]1[C@H]3Cc1cccc2ccccc12` (relative stereo) [IF-611] and `CC(C)CC[C@@H]1[C@@H]2[C@@H]3CN[C@@]1(C(=O)NCCO)C[C@@H]3CN2Cc1cccc2ccccc12` (relative stereo) [IF-613] fall in the same range of IC50: 10 to 30 µM for the first, 10 to 30 µM for the second.

`O=C(NCCO)[C@@]12C[C@@H]3CN(Cc4cccc5ccccc45)[C@@H]([C@@H]3CN1)[C@H]2Cc1cccc2ccccc12` (relative stereo) [IF-614] and `O=C(NCCO)[C@@]12C[C@@H]3CN(Cc4ccccc4)[C@@H]([C@@H]3CN1)[C@H]2Cc1cccc2ccccc12` (relative stereo) [IF-624] fall in the same range of IC50: 10 to 30 µM for the first, 10 to 30 µM for the second.

Compared with `CC(C)CCN1C[C@H]2C[C@]3(C(=O)NCC(C)C)NC[C@H]2[C@H]1[C@H]3CCc1ccccc1` (relative stereo) [IF-635], `CC(C)CCNC(=O)[C@@]12C[C@@H]3CN(CCc4ccccc4)[C@@H]([C@@H]3CN1)[C@H]2CC(C)C` (relative stereo) [IF-657] is lower in IC50: 10 to 30 µM for the first, < 5 µM for the second. The second is the more potent here.

`CC(C)C[C@@H]1[C@@H]2[C@@H]3CN[C@@]1(C(=O)NCc1ccccc1)C[C@@H]3CN2CCc1ccccc1` (relative stereo) [IF-639] and `CC(C)C[C@@H]1[C@@H]2[C@@H]3CN[C@@]1(C(=O)NCc1ccccc1)C[C@@H]3CN2Cc1ccc(F)cc1` (relative stereo) [IF-650] cannot be ordered by IC50: < 5 µM for the first, < 5 µM for the second.

First: O=C(NCc1ccccc1)[C@@]12C[C@@H]3CN(CC4CCCCC4)[C@@H]([C@@H]3CN1)[C@H]2Cc1ccc(O)cc1 (relative stereo) [IF-645]
Second: CC(C)CCNC(=O)[C@@]12C[C@@H]3CN(CC4CCCCC4)[C@@H]([C@@H]3CN1)[C@H]2Cc1ccccc1 (relative stereo) [IF-658]
The IC50 of the first is higher: 10 to 30 µM for the first, < 5 µM for the second. The second is the more potent here.

`CC(C)CNC(=O)[C@@]12C[C@@H]3CN(CC4CCCCC4)[C@@H]([C@@H]3CN1)[C@H]2Cc1cccc2ccccc12` (relative stereo) [IF-646] and `CC(C)CNC(=O)[C@@]12C[C@@H]3CN(Cc4ccc(F)cc4)[C@@H]([C@@H]3CN1)[C@H]2CCc1ccccc1` (relative stereo) [IF-652] cannot be ordered by IC50: < 5 µM for the first, < 5 µM for the second.

For `CC(C)CCNC(=O)[C@@]12C[C@@H]3CN(CCO)[C@@H]([C@@H]3CN1)[C@H]2Cc1ccccc1` (relative stereo) [IF-656], the IC50 was 10 to 30 µM.

Source: patent EP4104902B1, “COMPOUNDS AND M[…] SAME” (priority 2020, dated 2021)
